Values quoted from earlier work, collected in US7829066B2, “Assay for anti-metastatic agents” (Memorial Sloan-Kettering Cancer Center, priority 2006, dated 2010).

Test system: metastatic tumors
Conditions: stated as known

Avastin: an anti-VEGF inhibitor that is known to inhibit metastatic tumors
inhibition of metastatic tumors: known to inhibit metastatic tumors
